Reference: EP0687258B1, “SUBSTITUTED IMINOACETONITRILES WITH MYOCARDIAL PROTECTIVE EFFECT” (HOECHST AKTIENGESELLSCHAFT, priority 1993, dated 1994)

Tested on: isoliert perfundierten Rattenherzens
Assay: Isolated perfused rat heart (Langendorff), anoxia/reoxygenation, release of lactate dehydrogenase into the perfusate
Design: species or system Wistarratten
Details: for Freisetzung von Laktatdehydrogenase (großer initialer Enzymverlust) während der Reoxygenationsphase: closed circles, n = 4 hearts; for Enzymverlust nach anschließendem Auswaschen der Substanz: open circles
Protocol: Die pharmakologische Wirkung der erfindungsgemäßen Verbindungen der allgemeinen Formel I sowie des N-Morpholino-iminoacetonitrils wurden am Modell des isoliert perfundierten Rattenherzens untersucht.
Dazu wurden Herzen von 200 - 250 g schweren Wistarratten in einer temperaturkontrollierten Kammer (37°C) an ein Langendorff-Perfusionssystem gehängt. Die Kammer war während normoxischer Perfusionen mit Luft, während anoxischer mit 95 % N2 plus 5 % CO2 gefüllt. […] Für eine initiale Stabilisierungsperiode von 30 min wurden die Herzen mit einem oxygenierten salinen Medium perfundiert (Zusammensetzung in mM: 140.0 NaCl, 24.0 NaHCO3, 2.7 KCl, 0.4 NaH2PO4, 1.0 MgCl2, 1.8 CaCl2, 5.0 Glucose, äquilibriert mit 95 % O2 und 5 % CO2, pH 7.4). Für anoxische Perfusionen wurde diese initiale normoxische Stabilisierungsperiode gefolgt von 60 min Perfusion, mit einem Fluß von 5 ml/min von anoxoischem Medium (Zusammensetzung wie zuvor, aber ohne Glucose und äquilibriert mit 95 % N2 und 5 % CO2, pH 7.4). Die anoxisch perfundierten Herzen wurden nachfolgend durch Zurückschalten auf die initialen normoxischen Perfusionsbedingungen reoxygeniert.
In Versuchen mit den Testsubstanzen wurden diese dem anoxischen Perfusat während der letzten 15 min zugefügt. Die ersten 60 min der Reoxygenationsphase wurden ebenfalls in Gegenwart der Testsubstanzen durchgeführt. Danach wurde ohne diese Substanzen die normoxische Perfusion für weitere 45 min fortgesetzt.
Die Herzschädigung wurde charakterisiert durch die Freisetzung des zytosolischen Enzyms Laktatdehydrogenase (LDH) in das Perfusat. Während der Herzperfusion wurden 1-minütige Sammelproben des Effluats gesammelt. Die Aktivität von LDH wurde auch in Homogenaten ganzer Rattenherzen gemessen (präpariert in 100 mM Phosphatpuffer, pH 7.4, mit 1 % Triton X-100). […] Der Enzymverlust wurde in Prozenten der initialen Gesamtgewebsaktivitäten angegeben.

## CC(=O)C(C)=NO [Butandionmonoxim, reference compound]
Reoxygenation after 60 min anoxia in presence of 20 mM test substance, Abbildung 1 C
  Freisetzung von Laktatdehydrogenase (großer initialer Enzymverlust) während der Reoxygenationsphase: weitgehend unterdrückt
Washout after reoxygenation in presence of 20 mM test substance, Abbildung 1 C
  Enzymverlust nach anschließendem Auswaschen der Substanz: geringen initialen Steigerung des Enzymverlustes

## N#CC=NN1CCOCC1 [N-Morpholino-iminoacetonitril]
Relative to BDM (10 mM vs 20 mM)
  Wirksamkeit im Vergleich zu BDM: etwa doppelt so hoch wie die von BDM
Reoxygenation after 60 min anoxia in presence of 10 mM test substance, Abbildung 1 B
  Freisetzung von Laktatdehydrogenase (großer initialer Enzymverlust) während der Reoxygenationsphase: weitgehend unterdrückt
Summary of the results shown
  reoxygenationsbedingte Myokardschädigung: deutlich reduziert
Washout after reoxygenation in presence of 10 mM test substance, Abbildung 1 B
  Enzymverlust nach anschließendem Auswaschen der Substanz: keiner weiteren Steigerung des Enzymverlusts
